Measurements published in US20240407363A1 (priority 2021, published 2024).
In brackets after ≈: the same amount, converted by molar mass.

Test system: X. perforans GEV-485
Assay: In vitro MIC and MBC determination in nutrient broth / on NA plates
Assay type: cell-based
Conditions: three trials
Procedure: X. perforans strain GEV-485, a copper-resistant strain, was used in this study to evaluate the antibacterial activity of Hx. Working cultures of GEV-485 were retrieved from −80° C. storage vials containing bacterial suspensions in 30% glycerol (v/v). Bacterial cells were taken from the storage, streaked on nutrient agar (NA; Difco™ Sparks, MD) plates and incubated for 48 h at 28° C. and single colonies were picked and streaked on NA plates to ensure bacterial purity for further cultures. NA amended with copper (II) sulfate pentahydrate (CuSO4·5H2O) (Fisher Scientific-Hampton, NH) at 20 ppm, was used as copper tolerance selective agent. To prepare the bacterial inoculum, a single bacterial colony was streaked on NA and incubated for 24 h at 28° C. From those plates, loops of bacterial cells were collected and resuspended in SDW amended with 0.01 M MgSO4. The bacterial concentration was adjusted to ˜5.0×10^8 colony-forming units (CFU)/mL based on an optical density (OD) of 0.3 at 600 nm. The in vitro studies were conducted to determine the minimum inhibitory concentration (MIC), minimum bactericidal concentration (MBC), and the antibacterial activity at different time points.
To determine MIC of Hx against X. perforans GEV-485, individual 96-well plates containing 100 μL of nutrient broth (NB) with varied copper and Hx concentrations were inoculated with 100 μL of the GEV-485 suspension at the concentration of 1.0×10^8 CFU/mL. The final chemical concentrations on the wells were 16, 32, 64, 128, 256, 512, 1024, 2048, 4096 and 8192 mg/L. Three wells with 100 µL of NB and 100 μL of the bacterial suspension were the controls. Solutions in all wells were thoroughly mixed by pipetting. The plate was, then, covered with a lid and incubated under stationary conditions at 28° C. for 24 h. The value of MIC for Hx and copper was determined as the minimum concentration (mg/L), at which the bacterial growth was inhibited (the solution was clear), among all tested concentrations of each chemical. After MIC was determined, an aliquot of 20 μL of the solution from the wells that gave a clear solution was plated on NA. […] The MBC was determined as the minimum concentration, at which >99.9% of the initial bacterial populations were killed and no visible growth of the bacterium was observed on the NA plates among all tested concentrations of antimicrobial agents. The experiment was repeated two more times, with three replications for each treatment.

`CCCCCC(=O)O` [Hexanoic acid, hexanoic acid] showed an MIC (28° C. for 24 h, copper-resistant strain, read-out: MIC) of 512 µg/mL (≈ 4.41 mM) and an MBC (>99.9% of initial bacterial populations killed, no visible growth on NA, read-out: MBC) of 1020 µg/mL (≈ 8.82 mM).
